*1 amine or outer side, *2 acyl side, *3 side chain or, on linkers, in order; H or OH if unused. Where a SMILES comes first, the peptide text is derived from it. Bridges are numbered along the chain shown (N, C = ends). Side-chain parts run from the residue outwards. [ ]: non-standard residue; d: D form. The star is where a group is joined. Gln(3S,4R-Me2) = C[C@H]([C@H](N)C(=O)O)[C@@H](C)C(N)=O; dTyr(βR-OMe) = CO[C@H](c1ccc(O)cc1)[C@@H](N)C(=O)O; Biotin = O=C1N[C@H]2[C@H](CS[C@H]2CCCCC(=O)*)N1; X3 = CC(C)[C@@H](O[*:3])[C@H](N[*:1])C(=O)[*:2]; X1 = CCC(C)/C=C(C)/C=C\C(O)C(C)(O)C(=O)*; X2 = CC(N[*:3])[C@H](N[*:1])C(=O)[*:2]; NMeT = CN[C@H](C(=O)O)[C@@H](C)O; Pip = O=C(O)[C@@H]1CCCCN1; Ahx = NCCCCCC(=O)O
Legend:
[1] = system: DHIV-3 pseudotype virus expressing X4 tropic envelope (IIINL4), CEM-SS cells; assay type: cell-based, HIV; conditions: duplicate determinations
[2] = system: HIV-1NL4-3 (X4 tropic virus) entry into HeLa T4+ cells; experiment: Virion based fusion assay (BlaM-Vpr), X4 tropic virus; assay type: cell-based; conditions: n≥4
[3] = system: VSV-G pseudotype virus, CEM-SS cells; assay type: cell-based, HIV pseudotyped with vesicular stomatitis virus envelope; conditions: n≥3
[4] = system: DHIV-3 pseudotype virus expressing IIINL4 envelope, CEM-SS cells; assay type: cell-based, HIV; conditions: papuamide A 178 nM with annexin V 0.1 μM; n=3
[5] = system: HIV-1NL(AD8) (R5 tropic virus) entry into TZM-bl cells; experiment: Virion based fusion assay (BlaM-Vpr), R5 tropic virus
Procedure: Briefly, production of virus was accomplished by co-transfection of 20 μg of pMM310 (plasmid encoding β-lactamase linked to Vpr, BlaM-Vpr) [56],10 μg pAdVAntage (Invitrogen, Carlsbad, CA); and 60 μg pNL4-3(X4 tropic proviral DNA) [50] or pNL(AD8) (R5 tropic proviral DNA) [51] into 293FT cells using standard calcium phosphate transfection. Virus was collected after 48 hours and titered using the RETROtek p24 ELISA kit (ZeptoMatrix, Buffalo, NY). HeLaT4 or TZM-bl cells, 200μL at a concentration of 1 X 10^5 cells/mL, were plated into 96 well, black walled, flat bottom plates and placed in a 37°C, 5% CO2 humidified incubator overnight for attachment. Medium was aspirated and 200 μL of medium containing virus, at a predetermined p24 concentration of 200 ng/mL, was added with test compounds or vehicle. Cells were incubated at 37°C, 5% CO2 for 2 hours. Virus was aspirated off and cells rinsed twice with room temperature CO2 independent medium (Invitrogen, Carlsbad, CA). Cells were then loaded with CCF2-AM fluorescent substrate (Invitrogen, Carlsbad, CA) according to manufacturer’s protocol. Cells were incubated, protected from light, for 1 hour at room temperature and washed twice with room temperature CO2 independent medium. Next, 200 μL of room temperature CO2 independent medium supplemented with 10% FBS and 2.5mM probenecid (Sigma-Aldrich, St. Louis, MO) was added and the reaction was allowed to develop for 5–7 hours.
When fusion occurs, β-lactamase (BlaM) present in the virus cleaves the CCF2-AM substrate. This cleavage results in a change of the fluorescence emission from green to blue. Images of the cells were taken with a fluorescent microscope equipped with the appropriate filter set, Excitation filter 405±10 nm, Dicroic mirror 425, Emission Filter (blue) 460±20 nm, and Emission Filter (green) 530±15 nm. Using ImageJ, an image software program provided by NIH, the amount of green and blue fluorescence was determined. To quantify the observed fusion, a fluorescence ratio was calculated by dividing the amount of blue fluorescence by the amount of green fluorescence. This value was then normalized to the non-infected control by dividing the calculated values by the average control value.

[6] = system: NL4-3 BlaM-Vpr virus entry, HeLa T4 cells; experiment: Papuamide A preincubation in virion fusion assay; assay type: cell-based, HIV-1; conditions: 178 nM (Fig. 6a) or 710 nM (method), n≥3
Procedure: HeLa T4 cells were infected with NL4-3 BlaM virus and treated with 710 nM papuamide A, following these three protocols: Virus pretreated with papuamide A for 30 minutes at room temperature prior to dilution and addition to the cells; Cells pretreated with papuamide A for 2 hours followed by aspiration of papuamide A containing medium and addition of virus; Virus and papuamide A added to the cells at the same time.

[7] = Surface plasmon resonance, papuamide A - positive control peptide; assay type: binding
Procedure: (§1) The expected response at saturation is determined by the following formula: LCR/MWL×MWA , (LCR=Ligand capture response, amount of papuamide A captured onto the biosensor chip; MWL=molecular weight of ligand, papuamide A; and MWA=molecular weight of analyte, the protein or peptide.)[23–26] The observed response, determined by the BIAcore instrument detector in response units (RU), can be lower than the expected response if the concentration of analyte used is below the dissociation constant (KD) concentration value, KD values were calculated by the software from the binding responses obtained with multiple concentrations of analyte. When this is the case, the fold difference in concentration values (KD/concentration of analyte used) is approximately proportionate to the fold difference in responses (expected response/observe response). Therefore, to correct for the expected response at the maximum concentration tested, the expected response at saturation was divided by the fold difference in concentration values to determine the expected response at the maximum value tested.
Binding interactions were quantified by surface plasmon resonance (SPR). Studies were performed at the University of Utah Protein Interactions facility on a BIAcore 3000 instrument. […] Data analyzed using the SCRUBBER software, developed by the University of Utah Protein Interactions Facility.

[8] = system: pseudotype virus expressing amphotropic murine leukemia virus (aMLV) envelope glycoprotein, CEM-SS cells; assay type: cell-based; conditions: 178 nM (Fig. 4; text 174nM); flow cytometry of GFP, 48 h; n≥3
[9] = system: pseudotype virus expressing JRFL (R5 tropic) envelope, CEM.NKR-CCR5 cells; assay type: cell-based, HIV; conditions: 178 nM (Fig. 4; text 174nM); flow cytometry of GFP, 48 h; n≥3
[10] = system: pseudotype virus expressing LAI (X4 tropic) envelope, CEM-SS cells; assay type: cell-based, HIV; conditions: 178 nM (Fig. 4; text 174nM); flow cytometry of GFP, 48 h; n≥3
sCD4 = molecular target: T1, sCD4 (Homo sapiens, UniProt P01730); experiment: Surface plasmon resonance, papuamide A - sCD4; assay type: binding
T1 construct: Soluble CD4 (sCD4)
Procedure: as §1
(§2) Binding interactions were quantified by surface plasmon resonance (SPR). Studies were performed at the University of Utah Protein Interactions facility on a BIAcore 3000 instrument. Briefly, papuamide A was biotinylated using the EZ-Link Sulfo-NHS-LC-LC-Biotin reagent (Pierce Biotechnology, Rockford, IL) with reaction products purified by reverse phase high performance liquid chromatography (HPLC). Biotinylation was confirmed by mass spec and presumed to target the free amine of the 2,3-diaminobutenoic acid. Biotinylated papuamide A was captured onto a chip with a carboxymethylated dextran matrix preimmobilized with streptavidin. Analytes were then flowed over the chip in hepes buffered saline (HBS) running buffer containing 1 mg/mL bovine serum albumin to reduce nonspecific binding. […] Data analyzed using the SCRUBBER software, developed by the University of Utah Protein Interactions Facility.

[11] = system: pseudotype virus infection; assay type: cell-based, HIV; conditions: 174nM papuamide A; flow cytometry of GFP; data not shown
gp120 = gp120 (Human immunodeficiency virus type 1 group M subtype B, UniProt P03375); experiment: Surface plasmon resonance, papuamide A - gp120; assay type: binding, HIV
Procedure: as §1, §2

[12] = system: viral infection of cells preincubated overnight; experiment: Overnight preincubation of cells with papuamide A; assay type: cell-based, HIV; conditions: data not shown
[13] = system: 20% phosphatidylserine / 80% phosphatidylcholine vesicles; experiment: Surface plasmon resonance, PS:PC vesicle binding; conditions: 20% PS, 80% PC vesicles; data not shown
Procedure: (§3) Papuamide A’s ability to bind to phosphatidylserine was observed using surface plasmon resonance. Twenty percent phosphatidylserine and 80% phosphatidylcholine (PC) vesicles were tested alongside 100% PC vesicles. […] This indicates there is a preferential binding of papuamide A to phosphatidylserine. To determine if binding of PS alone was sufficient to inhibit viral entry, annexin V (AV) was tested in the virion based fusion assay.

[14] = system: pseudotype virus expressing vesicular stomatitis virus (VSV) envelope glycoprotein, CEM-SS cells; assay type: cell-based, HIV pseudotyped with vesicular stomatitis virus envelope; conditions: n≥3
[15] = system: 100% phosphatidylcholine (PC) vesicles; experiment: Surface plasmon resonance, PC vesicle binding; conditions: 100% PC vesicles; data not shown
Procedure: as §3

[16] = system: phosphatidylserine (PS) containing liposomes; conditions: cited from earlier work
Excerpt: (§4) Papuamide B only differs from papuamide A by one methyl group. […] PS is a phospholipid normally present on the inner leaflet of the cell membrane, but during apoptosis the regulation of PS is altered and PS is present on the outer leaflet.

[17] = system: liposomes composed solely of phosphatidylcholine; conditions: cited from earlier work
Excerpt: as §4

HIV T cell infection = conditions: binding of PS by Annexin V; cited from earlier work
Excerpt: as §4

[18] = system: HIV infection of monocyte and macrophage; conditions: binding of PS by Annexin V; cited from earlier work
Excerpt: as §4

Molecule: Cc1cn([C@H]2C[C@H](N=[N+]=[N-])[C@@H](CO)O2)c(=O)[nH]c1=O [AZT, azidothymidine]
- effect of delayed addition, 1 hour ([1]; C34 233 nM or AZT 3.7 μM added 1 hour after virus): no difference in activity
- effect of delayed addition, 2 hours ([1]; C34 233 nM or AZT 3.7 μM added 2 hours after virus): only a minor loss of activity
- inhibition of viral entry ([2]; AZT at 18 μM, fluorescence ratio): did not prevent viral entry

Molecule: CCC(C)/C=C(C)/C=C\C(O)C(C)(O)C(=O)NCC(=O)N[C@H](C(=O)N[C@H](C(=O)N[C@H](C(=O)N[C@@H]1C(=O)N[C@H](COC)C(=O)NCC(=O)N[C@@H](C)C(=O)N(C)[C@@H]([C@@H](C)O)C(=O)N[C@H]([C@H](OC)c2ccc(O)cc2)C(=O)N2CCCC[C@H]2C(=O)O[C@@H]1C(C)C)[C@@H](C)[C@@H](C)C(N)=O)C(C)NC(=O)CCCCCNC(=O)CCCCCNC(=O)CCCC[C@@H]1SC[C@@H]2NC(=O)N[C@@H]21)[C@@H](C)O (stereo partly drawn) [papuamide A] (X1-GT[X2]([Ahx-Ahx-Biotin])[Gln(3S,4R-Me2)][X3][dS](Me)GA[NMeT][dTyr(βR-OMe)][Pip]; ester 5-C)
- decreased infectivity, pretreated versus simultaneous addition ([3]; 178 nM): the same as that observed when papuamide A was added to cells at the same time as VSV-G pseudotype virus
- decreased infectivity after virus pretreatment [3]: ~50%
- inhibition of viral entry ([2]; 710 nM papuamide A, 2 h infection, blue/green fluorescence ratio): approximately 80%
- inhibition of X4 and R5 virus entry, papuamide A alongside annexin V ([2]; Fig. 7a, X4 (NL4-3)): remained active
- effect of papuamide A in presence of annexin V [4]: unchanged in the presence of AV
- inhibition of R5 tropic virus entry ([5]; 710-43.4 nM, n≥3): effectively inhibited the entry of the R5 tropic virus in a dose dependant manner
- inhibition of X4 and R5 virus entry, papuamide A alongside annexin V ([5]; Fig. 7a, R5 (NL(AD8)), n≥4): remained active
- inhibition of viral entry after cell pretreatment ([6]; cells incubated with papuamide A 2 hours, removed, two washes, then infected): did not result in inhibition of viral entry
- inhibition after virus pretreatment ([6]; virus pretreated 30 minutes then diluted): rate of inhibition similar to when papuamide A was added at the same time as virus
- SPR interaction with positive control peptide [7]: shown to interact with a positive control binding peptide
- Kd ([7]; calculated by software from binding responses at multiple peptide concentrations, max 5 μM, biotinylated papuamide A captured on chip): 176 µM
- inhibition of infection [8]: effectively inhibited infection
- inhibition of infection [9]: inhibits infection
- inhibition of infection [10]: inhibits infection
- observed response lower than calculated expected response (sCD4; at maximum sCD4 concentration tested): 600 times lower
- Fold Difference of Responses (sCD4; expected response at saturation / observed response, sCD4): 974
- SPR binding response significance (sCD4; sCD4): determined not to be significant
- inhibition of infection [11]: approximately 50%
- observed response lower than calculated expected response (gp120; at maximum gp120 concentration tested): 54 times lower
- Fold Difference of Responses (gp120; expected response at saturation / observed response, gp120): 1284
- SPR binding response significance (gp120; gp120): determined not to be significant
- inhibition of infection after overnight cell preincubation [12]: failed to inhibit viral infection
- SPR vesicle binding [13]: exhibited binding to papuamide A
- inhibition of infection [14]: effectively inhibited infection
- SPR vesicle binding [15]: did not

Molecule: papuamide B
- binding to and leakage of liposomes [16]: bind to and cause leakage of phosphatidylserine (PS) containing liposomes
- binding to and leakage of liposomes [17]: not those composed solely of phosphatidylcholine
- inhibition of viral entry ([5]; 710 nM, NL(AD8), n≥4): approximately 80%

B1: annexin V: a specific binder of PS (protein, UniProt P08758 2-320, looked up)
Annexin A5: AQVLRGTVTDFPGFDERADAETLRKAMKGLGTDEESILTLLTSRSNAQRQEISAAFKTLFGRDLLDDLKSELTGKFEKLIVALMKPSRLYDAYELKHALKGAGTNEKVLTEIIASRTPEELRAIKQVYEEEYGSSLEDDVVGDTSGYYQRMLVVLLQANRDPDAGIDEAQVEQDAQALFQAGELKWGTDEEKFITIFGTRSVSHLRKVFDKYMTISGFQIEETIDRETSGNLEQLLLAVVKSIRSIPAYLAETLYYAMKGAGTDDHTLIRVMVSRSEIDLFNIRKEFRKNFATSLYSMIKGDTSGDYKKALLLLCGEDD
- inhibition of infection (HIV T cell infection): not T cell infection
- inhibition of infection [18]: able to inhibit monocyte and macrophage infection
- inhibition of X4 virus entry ([2]; annexin V at concentrations similar to and higher than that shown to inhibit HIV infection, NL4-3): did not have any inhibitory effect
- inhibition of R5 virus entry ([5]; annexin V at concentrations similar to and higher than that shown to inhibit HIV infection, NL(AD8), n≥4): did not have any inhibitory effect

Reference: paper PMC2630844, “Characterizing the Anti-HIV Activity of Papuamide A” (Marine Drugs, 2008)
